Source: PMC3852661, “Structural basis of SUFU–GLI interaction in human Hedgehog signalling regulation” (Acta Crystallographica Section D: Biological Crystallography, 2013)

Experiments:
[1] = tested on: MBP-SUFU-FL, mutation of Asp159; assay: Microscale thermophoresis, MBP-SUFU-FL mutated at Asp159; type: binding, human; details: mutation of Asp159 in MBP-SUFU-FL, data not shown
Experimental: A 5-FAM-labelled peptide (FAM-GLI1p) comprising residues 115–131 of GLI1 (Supplementary Table S1b) was synthesized by Pepceuticals Ltd. A titration series of each recombinant protein was prepared by serial 1:1 dilutions in MST buffer (50 mM Tris–HCl pH 7.6, 150 mM NaCl, 10 mM MgCl2, 0.05% Tween-20) and mixed in a 1:1 ratio with FAM-GLI1p to give final concentrations of 50 nM FAM-GLI1p with MBP-SUFU constructs in the ranges 14.2–29 070 and 54–110 500 nM. Reactions were aspirated into glass capillaries and the thermophoretic movement of FAM-GLI1p was monitored using a Monolith NT.115 instrument (NanoTemper Technologies; Wienken et al., 2010[▶]), with a laser on for 30 s and off for 5 s and a laser power/voltage of 20% for MBP-SUFU-FL and the MBP-SUFU-FL mutants, 40% for MBP-SUFU-Δ and 80% for MBP-SUFU-SH. Fluorescence was measured before laser heating (F Cold) and after 30 s of laser-on time (F Hot). The normalized fluorescence F Hot/F Cold reflects the concentration ratio of labelled molecules. F Hot/F Cold was plotted directly and multiplied by a factor of […], yielding a relative change in fluorescence per thousand. K d was calculated from three independent thermophoresis measurements using NanoTemper software (NanoTemper Technologies). […]

MBP-SUFU-SH = assay: Thermal stability assay with peptide, MBP-SUFU-SH; type: binding, human; details: 44 µM peptide, 2.2 µM protein, SYPRO Orange, pH 7.0; triplicate
Chain of MBP-SUFU-SH (Q9UMX1 32-278 limits assumed): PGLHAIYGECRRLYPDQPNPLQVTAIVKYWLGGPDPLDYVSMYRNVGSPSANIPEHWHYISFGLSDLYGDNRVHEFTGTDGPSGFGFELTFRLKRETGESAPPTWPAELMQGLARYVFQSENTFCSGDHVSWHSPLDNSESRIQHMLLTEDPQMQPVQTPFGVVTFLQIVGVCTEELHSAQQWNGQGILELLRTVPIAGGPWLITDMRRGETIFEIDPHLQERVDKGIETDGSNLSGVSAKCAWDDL
Chain of MBP-SUFU-SH (Q9UMX1 361-483 limits assumed): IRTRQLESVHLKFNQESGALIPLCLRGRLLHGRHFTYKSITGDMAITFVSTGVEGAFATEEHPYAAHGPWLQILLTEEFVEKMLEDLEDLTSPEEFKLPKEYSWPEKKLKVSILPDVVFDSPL
Experimental: Recombinant MBP-SUFU proteins were diluted to 2.6 µM in 50 mM Na HEPES pH 7.0, 50 mM NaCl, 5 mM β-mercaptoethanol; the peptides GLI1p and GLI1p-SH (Supplementary Table S1b), synthesized by Dr W. Mawby (University of Bristol), were dissolved in the same buffer. Proteins were spun at 14 000g for 20 min at 4°C before adding SYPRO Orange (Molecular Probes) to a final concentration of 6×. Reaction volumes of 25 µl were prepared in 96-well PCR plates with 2.2 µM protein/SYPRO Orange solution and, where applicable, 44 µM peptide. Plates were sealed with optical tape, heated from 20 to 90°C in 12 s 0.2°C steps in an iCycler and fluorescence was detected using an excitation wavelength of 470 nm and an emission wavelength of 570 nm.
Figure 4 The SUFU IDR has distinct structural properties. (a) Thermal stability assays of MBP-SUFU constructs performed in triplicate, either alone (blue) or with GLI1p (red) or GLI1p-SH (green). […] (b) Microscale thermophoresis experiments with FAM-GLI1p and titrated MBP-SUFU constructs, showing an average of three separate experiments. All proteins have similar affinity, but the thermophoretic properties of FAM-GLI1p are modified differently between the MBP-SUFU-FL construct and the MBP-SUFU-Δ and MBP-SUFU-SH constructs, reflecting a difference in shape.

detectable binding [1]: abolished detectable binding | binding (MBP-SUFU-SH): All constructs bind to GLI1p
Substance: GLI1p: human GLI1-derived peptide; residues 115–131, containing the highly conserved SYGH motif (TSPGGSYGHLSIGTMSP)
